Measured values from patent publication US11958842B2, “Substituted phenazines and methods of treating cancer and bacterial diseases” (Adjutec Pharma AS, priority 2016, dated 2024).
Converted amounts (≈) assume the structure as drawn. Like-named read-outs stand apart in the source and are kept apart here. Marks after values point to notes of the source that are not given here.

How the values were obtained:
[1] = Parallel artificial membrane permeability assay (PAMPA); conditions: PAMPA, 50 μM in PBS, room temperature, five hours
Procedure: The Corning Gentest™ pre-Coated parallel artificial membrane permeability assay PAMPA Plate System was from Cording Discovery Labware (Bedford, USA). The compounds were tested in room temperature at 50 μM using PBS as buffer. A total of 300 μl of the compound solution was added to each well of the donor plate, and 200 μl of PBS was added to the receiver filter plate. After incubation for five hours, 50 μl of the donor or acceptor well were injected into a reversed phase HPLC column (Kromasil 100-5 C18 150-4.6 mm, Akzo Nobel, Sweden) connected to a Merck-Hitachi LaChrome HPLC-system (VWR, WestChester, USA) with a L-7455 diode array detector. Mobile phase A was 0.05% aqueous TFA, and mobile phase B was acetonitrile. The flow rate was 1.6 ml/min and compounds eluted between 1 and 4.5 minutes was eluted during a 6.5 min gradient from 90:10% mobile phase A:B to 0:100% mobile phase A:B. The ratio of the compound concentrations in the donor and acceptor compartment was calculated after integration of the peaks at 285 nm. Peff was calculated as described in [Bennion B J, Be N A, McNerney M W, Lao V, Carlson E M, Valdez C A, et al. Predicting a Drug's Membrane Permeability: A Computational Model Validated With in Vitro Permeability Assay Data. The journal of physical chemistry B. 2017; 121(20):5228-37.]. Membrane permeability were classified by the range defined by Bennion et al., allowing for us to divide the compounds into four groups, compounds with high permeability (LogPeff>−5.33), intermediate permeability (LogPeff>−5.66 and <−5.33), low permeability (LogPeff>−6.14 and <−5.66) impermeable (LogPeff<−6.14).

hepG2 = test: Cytotoxicity (Example 73, Table 2); type: cell-based; conditions: Homo sapiens, read-out: EC50 (μM) hepG2
[2] = tested on: human acute myeloid leukemia cell line MOLM-13; test: Cytotoxicity, WST-1 and nuclear morphology (Example 73); type: cell-based
Outline: (§1)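 MOLM-13 (RPMI/FBS), NRK and H9c2 (DMEM/10% FBS) cells under 2% or 20% O2 at 37° C were exposed to analogues for 24 h (≤1% DMSO). Viability was read by WST-1, and cell death by Hoechst 33342 nuclear morphology; EC50 came from four-parameter regression.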

[3] = tested on: rat cardiomyoblast (H9c2) cells; test: as above; type: cell-based; conditions: H9c2, 19% O2, 24 hours of incubation, read-out: EC50 (μM) H9c2 19% O2
Outline: as §1

[4] = tested on: normal rat kidney epithelial (NRK) cells; test: as above; type: cell-based; conditions: Rattus norvegicus
Outline: as §1

Molm13 cells = test: Anti-AML activity, WST-1 viability (Example 72); type: cell-based; conditions: Homo sapiens, Molm 13 cells, WST-1
Outline: (§2)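 Rat IPC-81 cells in DMEM with 10% horse serum and Molm13 cells in RPMI with 10% FBS, seeded at 150 000 cells/ml with compound dilution series. After 22 h exposure, WST-1 added for a further 2 h; absorbance read at 450 nm (620 nm reference) as viability.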

IPC-81 rat AML cells = test: Anti-AML activity, WST-1 viability (Example 72); type: cell-based
Outline: as §2

[5] = all solvents; background statement; cited from earlier work
[6] = tested on: methicillin-resistant S. aureus MRSA A4-37; test: Microbroth dilution MIC; type: cell-based; conditions: compound alone
Procedure: (§3) Day 1: • Plate bacterial strain(s) on appropriate media: • Gram-negative bacteria with ESBLs or carbapenemases: green agar plates with 100 mg/L ampicillin • Gram-negative bacteria without β-lactamases: green agar plates • Gram-positive bacteria (Staphylococci and Enterococci): blood agar plates • Incubate o.n. at 37° C.
(§4) Prepare the Bacterial Inoculum: • Prepare a 0.5 McFarland suspension of bacteria in 0.85% NaCl. (Should be used within 15 min of preparation). • Dilute the 0.5 McFarland suspension 1:100 into MH broth.
(§5) Check the inoculum by diluting the prepared bacterial suspension 1:100 (10 μl bacterial suspension+990 μl 0.85% NaCl). Plate 10 μl of the dilution on MH agar plates (×2). Incubate o.n. at 37° C., count the colonies and calculate the final CFU/ml inoculum in the plate by multiplying the average number of colonies with 10000 and divide by 2. The final inoculum should be between 3-7×10^5 CFU/ml. • Add 50 μl of the prepared bacterial suspension to each well in the microtiter plate except negative growth control.
(§6) Preparation of Compounds/Antibiotics • Calculate the desired concentration-range and volume of the compounds/antibiotics in the assay. For antibiotics this will depend on the MIC to meropenem of the bacterial strains to be tested. Dilute the stock solution in MH broth. Make subsequent 2-fold dilutions in MH broth of the desired concentrations if a concentration range is to be tested (remember the extra dilution factor in the assay plate). Always include extra volume for pipetting. Take into consideration stock solutions that are made in buffers that have an effect on bacterial growth (e.g. DMSO).
(§7) This experimental design was used for the results in Tables 4 and 5 below. In Table 4, inhibitor concentration dependency on the MIC of meropenem was studied.

[7] = tested on: vancomycin-resistant E. faecium vanA A1-22; test: Microbroth dilution MIC; type: cell-based; conditions: compound alone
Procedure: as §3, §4, §5, §6, §7

K. pneumoniae/KPC-2 = test: Microbroth dilution MIC; type: cell-based; conditions: Klebsiella pneumoniae; S6 K. pneumoniae/KPC-2; substance alone
Procedure: as §3, §4, §5, §6, §7

P. aeruginosa/VIM-2 = test: Microbroth dilution MIC; type: cell-based; conditions: Pseudomonas aeruginosa, read-out: MIC alone
Procedure: as §3, §4, §5, §6, §7

K. pneumoniae/NDM-1 = test: Microbroth dilution MIC; type: cell-based; conditions: Klebsiella pneumoniae; S4 K. pneumoniae/NDM-1; substance alone
Procedure: as §3, §4, §5, §6, §7

A.baumannii/OXA-23 = test: Microbroth dilution MIC; type: cell-based; conditions: Acinetobacter baumannii; S7 A.baumannii/OXA-23; substance alone
Procedure: as §3, §4, §5, §6, §7

E. coli/OXA-48 = test: Microbroth dilution MIC; type: cell-based; conditions: Escherichia coli, read-out: MIC alone
Procedure: as §3, §4, §5, §6, §7

K. pneumoniae (17A2) = test: Microbroth dilution MIC; type: cell-based; conditions: Klebsiella pneumoniae; S2 K. pneumoniae (17A2), lacking metallo-β-lactamase; substance alone
Procedure: as §3, §4, §5, §6, §7

P. aeruginosa (16H5) = test: Microbroth dilution MIC; type: cell-based; conditions: Pseudomonas aeruginosa; S1 P. aeruginosa (16H5), lacking metallo-β-lactamase; substance alone
Procedure: as §3, §4, §5, §6, §7

[8] = Homo sapiens, MOLM-13, 2% O2, 24 hours of incubation, read-out: EC50 (μM) MOLM-13 2% O2
[9] = Homo sapiens, MOLM-13, 19% O2, 24 hours of incubation, read-out: EC50 (μM) MOLM-13 19% O2
[10] = 2% O2, 24 hours of incubation, read-out: EC50 (μM) NRK 2% O2
[11] = 19% O2, 24 hours of incubation, read-out: EC50 (μM) NRK 19% O2
[12] = 2% O2, 24 h of incubation, read-out: Molm 13 IC50 2% O2
[13] = 20% O2, 24 h of incubation, read-out: Molm 13 IC50 20% O2

SMILES | EC50 (hepG2; hepG2, 24 hours of incubation) [µM] | EC50 [2, 8] [µM] | EC50 [2, 9] [µM] | EC50 ([3]; Rattus norvegicus) [µM] | EC50 [4, 10] [µM] | EC50 [4, 11] [µM] | IC50 (Molm13 cells; [12]) [nM] | IC50 (Molm13 cells; [13]) [nM] | MIC A4-37 S. aureus MRSA [6] [µg/mL] | MIC A1-22 E. faecium vanA [7] [µg/mL] | further results
[O-][n+]1c2cccc(O)c2[n+]([O-])c2cccc(O)c21 [Example 1c, 1,6-dihydroxyphenazine 5,10-dioxide, reference compound] | > 250 | 0.79 ± 0.1 | 2 ± 0.07 | > 50 | > 50 | > 50 | 270 | 300 |  |  | LogPeff [1]: −5.46*; IC50 (IPC-81 rat AML cells; IPC81, 24 h, read-out: IPC-81 IC50 2% O2): 510 nM; IC50 (IPC-81 rat AML cells; IPC81, 24 h, read-out: IPC-81 IC50 20% O2): 1300 nM; solubility [5]: practically insoluble in all solvents
CC(C)(C)OC(=O)COc1cccc2c1[n+]([O-])c1cccc(O)c1[n+]2[O-] [Example 5b, 1-(2-(tert-butoxy)-2-oxoethoxy)-6-hydroxyphenazine 5,10-dioxide] |  | 2.4 ± 0.16 | 2.9 ± 0.34 | 42 ± 5.8 | 53 | 53 ± 1.5 | 1650 | 1770 | < 0.5 | 8 (≈ 22.3 µM) | LogPeff [1]: −5.33
COc1cccc2c1[n+]([O-])c1cccc(OC(C)=O)c1[n+]2[O-] [Example 5e, 1-Acetoxy-6-methoxyphenazine 5,10-dioxide] |  |  |  |  |  |  | 1450 | 1500 |  |  | IC50 (IPC-81 rat AML cells; IPC81, IPC-81 cells, 2% O2, 24 h of incubation, WST-1, read-out: IPC-81 IC50 2% O2): 1700 nM; IC50 (IPC-81 rat AML cells; IPC81, IPC-81 cells, 20% O2, 24 h of incubation, WST-1, read-out: IPC-81 IC50 20% O2): 1800 nM
CCOC(=O)COc1cccc2c1[n+]([O-])c1ccccc1[n+]2[O-] [Example 6a, 1-(2-ethoxy-2-oxoethoxy)phenazine 5,10-dioxide] | 75 | 1.7 ± 0.29 | 1.5 ± 0.14 | 20 ± 2.9 | 25 ± 0.2 | 26 ± 0.8 |  | 110 | < 0.5 | 4 (≈ 12.7 µM) | MIC (K. pneumoniae/KPC-2): 9.7 µg/mL (≈ 30.9 µM); MIC (P. aeruginosa/VIM-2): 39.3 µg/mL (≈ 125 µM); MIC (K. pneumoniae/NDM-1): 19.6 µg/mL (≈ 62.4 µM); MIC (A.baumannii/OXA-23): 5 µg/mL (≈ 15.9 µM); MIC (E. coli/OXA-48): 2.5 µg/mL (≈ 7.95 µM)
CCOC(=O)COc1cccc2c1[n+]([O-])c1cc(Br)c(Br)cc1[n+]2[O-] [Example 6d, 7,8-dibromo-1-(2-ethoxy-2-oxoethoxy)phenazine 5,10-dioxide] | 65 | 1.6 ± 0.09 | 2.4 ± 0.03 | 3.3 ± 0.5 | 9.7 ± 2.4 | 10 ± 0.7 |  |  | 16 (≈ 33.9 µM) | 8 (≈ 16.9 µM) | 
COc1cccc2c1[n+]([O-])c1cccc(OC(=O)N3CCCC3)c1[n+]2[O-] [Example 8l, 1-methoxy-6-((pyrrolidine-1-carbonyl)oxy)phenazine 5,10-dioxide] |  |  |  |  |  |  |  |  | < 4 | 63 (≈ 177 µM) | EC50 (hepG2; HepG2, 24 h): 110 µM; EC50 ([2]; MOLM-13, 2% O2, 24 hours of incubation, read-out: EC50 (μM) MOLM-13 2% O2): 1.8 ± 0.17 µM; EC50 ([2]; MOLM-13, 19% O2, 24 hours of incubation, read-out: EC50 (μM) MOLM-13 19% O2): 2 ± 0.11 µM; EC50 [3]: 35 ± 3.3 µM; EC50 ([4]; 24 h, read-out: EC50 (μM) NRK 2% O2, NRK, 2% O2, 24 hours of incubation): 35 ± 1.5 µM; EC50 ([4]; 24 h, read-out: EC50 (μM) NRK 19% O2, NRK, 19% O2, 24 hours of incubation): 32 ± 2.5 µM
C[C@@H](O)[C@H]1C(=O)N2C(C(=O)O)=C(S[C@@H]3CN[C@H](C(=O)N(C)C)C3)[C@H](C)[C@H]12 [MEM, meropenem, reference compound] |  |  |  |  |  |  |  |  |  |  | MIC (K. pneumoniae/KPC-2): > 64 µg/mL; MIC (P. aeruginosa/VIM-2; S3 P. aeruginosa/VIM-2, substance alone): 32 µg/mL (≈ 83.4 µM); MIC (K. pneumoniae/NDM-1): 64 µg/mL (≈ 167 µM); MIC (A.baumannii/OXA-23): > 64 µg/mL; MIC (K. pneumoniae (17A2)): 8 µg/mL (≈ 20.9 µM); MIC (P. aeruginosa (16H5)): > 64 µg/mL; MIC (E. coli/OXA-48): 1 µg/mL (≈ 2.61 µM)
